Laboratory results published in patent publication US20250368666A1, “INDAZOLE COMPOUNDS” (TYRA BIOSCIENCES, INC., priority 2022, published 2025).

Columns and labels:
FGFR1 = molecular target: T1, FGFR1 (Homo sapiens, UniProt P11362); test: Kinase binding assay (kinase-tagged T7 phage, affinity beads, qPCR), Kd; settings: read-out: FGFR1 (Kd nM)
T1 construct: made in house; host or cells: E. coli (BL21-derived), T7 phage
Method in brief: (§1)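 T7 phage displaying each kinase, grown in a BL21-derived E. coli host at 32° C until lysis, competed with test compound for biotinylated ligand immobilised on streptavidin beads. Bead-bound kinase was eluted and quantified by qPCR. Kd came from an 11-point 3-fold dilution series fitted to the Hill equation with slope fixed at −1.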

FGFR2 = molecular target: T2, FGFR2 (Homo sapiens, UniProt P21802); test: as above; settings: read-out: FGFR2 (Kd nM)
T2 construct: made in house; host or cells: E. coli (BL21-derived), T7 phage
Method in brief: as §1

FGFR3 = molecular target: T3, FGFR3 (Homo sapiens, UniProt P22607); test: as above; settings: read-out: FGFR3 (Kd nM)
T3 construct: made in house; host or cells: E. coli (BL21-derived), T7 phage
Method in brief: as §1

FGFR3 (V555M) = molecular target: T4, FGFR3 (V555M) (Homo sapiens, UniProt P22607, V555M); test: as above; settings: V555M mutant; read-out: FGFR3 (V555M) (Kd nM)
T4 construct: made in house; host or cells: E. coli (BL21-derived), T7 phage
Method in brief: as §1

FGFR4 = molecular target: T5, FGFR4 (Homo sapiens, UniProt P22455); test: as above; settings: read-out: FGFR4 (Kd nM)
T5 construct: made in house; host or cells: E. coli (BL21-derived), T7 phage
Method in brief: as §1

[1] = tested on: KATO-III cell line (FGFR2 amplification); test: Cancer cell line cell viability assay (Cell Titer-Glo), 72 hr; assay type: cell-based; settings: Homo sapiens, KATO III
Method in brief: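 Following overnight attachment, each line receives compound in triplicate across nine 4-fold dilutions starting at 3 μM, with DMSO backfill for equal solvent. Luminescence after Cell Titer-Glo 2.0 addition gives percent viability versus DMSO control, fitted by 4-parameter logistic for IC50.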

[2] = tested on: KG-1 cell line (FGFR 1-fusion); test: as above; assay type: cell-based; settings: Homo sapiens, KG-1, KG-1 cell line (FGFR1-fusion)
Method in brief: (§2)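 RPMI1640/10% FBS for RT112/84 and MDA-MB-453; IMDM/20% FBS for KG-1; IMDM/10% FBS for HuH7. Cells plated overnight, dosed from 3 μM in 4-fold, 9-point series, incubated at 37° C, then lysed with Cell Titer-Glo 2.0; IC50 by sigmoidal fit.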

[3] = tested on: RT112/84 cell line (FGFR3-fusion); test: as above; assay type: cell-based; settings: Homo sapiens, RT112/84, RT112/84 cell line (FGFR3-fusion)
Method in brief: as §2

[4] = tested on: HuH7 cell line (FGF19 amplification); test: Cancer cell line cell viability assay (Cell Titer-Glo), 120 hr; assay type: cell-based; settings: Homo sapiens, Huh-7
Method in brief: as §2

T1 sequence (P11362 22-822): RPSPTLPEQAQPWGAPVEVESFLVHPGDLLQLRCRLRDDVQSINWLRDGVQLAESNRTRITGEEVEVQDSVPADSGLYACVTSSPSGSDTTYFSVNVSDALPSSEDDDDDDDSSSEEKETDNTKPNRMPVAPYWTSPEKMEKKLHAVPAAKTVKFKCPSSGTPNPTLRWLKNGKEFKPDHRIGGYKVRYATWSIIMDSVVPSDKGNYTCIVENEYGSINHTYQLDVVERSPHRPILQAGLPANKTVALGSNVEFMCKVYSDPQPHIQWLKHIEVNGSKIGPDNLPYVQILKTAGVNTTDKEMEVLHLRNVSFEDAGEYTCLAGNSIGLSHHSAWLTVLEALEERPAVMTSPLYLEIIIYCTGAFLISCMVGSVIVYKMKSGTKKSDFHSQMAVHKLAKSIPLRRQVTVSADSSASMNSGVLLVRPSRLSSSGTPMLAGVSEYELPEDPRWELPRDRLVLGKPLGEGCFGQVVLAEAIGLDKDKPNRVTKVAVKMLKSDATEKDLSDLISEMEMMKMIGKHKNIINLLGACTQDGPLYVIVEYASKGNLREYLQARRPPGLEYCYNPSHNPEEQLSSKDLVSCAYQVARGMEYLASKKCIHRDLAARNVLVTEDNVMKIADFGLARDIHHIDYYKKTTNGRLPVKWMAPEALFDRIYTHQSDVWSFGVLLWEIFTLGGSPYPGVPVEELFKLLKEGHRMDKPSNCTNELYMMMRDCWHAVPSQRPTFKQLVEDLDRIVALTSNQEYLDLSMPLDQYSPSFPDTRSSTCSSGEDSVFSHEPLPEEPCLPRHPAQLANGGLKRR
T4 sequence (P22607 23-806 V555M): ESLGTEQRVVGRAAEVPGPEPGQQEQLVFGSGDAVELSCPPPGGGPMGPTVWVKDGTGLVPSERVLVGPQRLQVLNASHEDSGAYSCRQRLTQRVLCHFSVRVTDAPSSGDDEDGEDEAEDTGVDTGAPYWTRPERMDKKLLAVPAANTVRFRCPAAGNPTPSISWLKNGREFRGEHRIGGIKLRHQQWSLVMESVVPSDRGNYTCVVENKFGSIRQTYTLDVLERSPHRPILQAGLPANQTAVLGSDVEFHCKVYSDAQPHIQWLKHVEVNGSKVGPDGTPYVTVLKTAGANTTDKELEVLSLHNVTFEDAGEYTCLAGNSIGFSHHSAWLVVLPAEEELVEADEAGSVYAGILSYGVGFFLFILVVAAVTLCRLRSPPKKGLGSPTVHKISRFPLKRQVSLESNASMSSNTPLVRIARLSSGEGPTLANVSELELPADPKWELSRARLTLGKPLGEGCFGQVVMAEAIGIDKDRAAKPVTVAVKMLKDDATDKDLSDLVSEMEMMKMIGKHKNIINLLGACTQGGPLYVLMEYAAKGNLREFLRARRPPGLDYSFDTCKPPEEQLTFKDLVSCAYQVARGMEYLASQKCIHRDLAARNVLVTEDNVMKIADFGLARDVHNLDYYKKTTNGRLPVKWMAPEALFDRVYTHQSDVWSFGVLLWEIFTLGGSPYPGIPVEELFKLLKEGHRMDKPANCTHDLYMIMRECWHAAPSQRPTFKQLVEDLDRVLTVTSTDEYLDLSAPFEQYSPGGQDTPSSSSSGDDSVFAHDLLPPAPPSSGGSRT
T5 sequence (P22455 22-802): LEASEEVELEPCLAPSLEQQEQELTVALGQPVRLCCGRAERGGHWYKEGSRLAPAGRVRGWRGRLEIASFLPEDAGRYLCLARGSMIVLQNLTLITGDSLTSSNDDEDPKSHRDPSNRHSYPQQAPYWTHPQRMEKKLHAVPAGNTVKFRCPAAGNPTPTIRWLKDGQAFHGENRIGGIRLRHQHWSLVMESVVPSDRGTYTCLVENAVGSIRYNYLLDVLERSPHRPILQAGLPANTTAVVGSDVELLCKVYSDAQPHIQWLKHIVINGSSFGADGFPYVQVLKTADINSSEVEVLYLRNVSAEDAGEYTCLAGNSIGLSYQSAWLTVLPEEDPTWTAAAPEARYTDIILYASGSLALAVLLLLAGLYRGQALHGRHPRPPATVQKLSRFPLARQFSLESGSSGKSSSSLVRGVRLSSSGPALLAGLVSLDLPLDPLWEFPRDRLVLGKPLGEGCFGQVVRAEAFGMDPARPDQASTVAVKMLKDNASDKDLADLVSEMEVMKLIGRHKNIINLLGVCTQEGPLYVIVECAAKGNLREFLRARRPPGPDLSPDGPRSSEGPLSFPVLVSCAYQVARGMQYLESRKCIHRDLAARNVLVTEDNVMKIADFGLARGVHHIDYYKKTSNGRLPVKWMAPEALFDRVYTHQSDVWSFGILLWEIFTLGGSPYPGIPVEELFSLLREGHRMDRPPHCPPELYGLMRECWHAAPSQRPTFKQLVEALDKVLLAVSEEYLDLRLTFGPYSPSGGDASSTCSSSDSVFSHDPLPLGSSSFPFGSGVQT
T3 sequence (P22607 23-806): as the sequence (P22607 23-806 V555M) above, with M533V counted along it
T2 sequence (P21802 22-821): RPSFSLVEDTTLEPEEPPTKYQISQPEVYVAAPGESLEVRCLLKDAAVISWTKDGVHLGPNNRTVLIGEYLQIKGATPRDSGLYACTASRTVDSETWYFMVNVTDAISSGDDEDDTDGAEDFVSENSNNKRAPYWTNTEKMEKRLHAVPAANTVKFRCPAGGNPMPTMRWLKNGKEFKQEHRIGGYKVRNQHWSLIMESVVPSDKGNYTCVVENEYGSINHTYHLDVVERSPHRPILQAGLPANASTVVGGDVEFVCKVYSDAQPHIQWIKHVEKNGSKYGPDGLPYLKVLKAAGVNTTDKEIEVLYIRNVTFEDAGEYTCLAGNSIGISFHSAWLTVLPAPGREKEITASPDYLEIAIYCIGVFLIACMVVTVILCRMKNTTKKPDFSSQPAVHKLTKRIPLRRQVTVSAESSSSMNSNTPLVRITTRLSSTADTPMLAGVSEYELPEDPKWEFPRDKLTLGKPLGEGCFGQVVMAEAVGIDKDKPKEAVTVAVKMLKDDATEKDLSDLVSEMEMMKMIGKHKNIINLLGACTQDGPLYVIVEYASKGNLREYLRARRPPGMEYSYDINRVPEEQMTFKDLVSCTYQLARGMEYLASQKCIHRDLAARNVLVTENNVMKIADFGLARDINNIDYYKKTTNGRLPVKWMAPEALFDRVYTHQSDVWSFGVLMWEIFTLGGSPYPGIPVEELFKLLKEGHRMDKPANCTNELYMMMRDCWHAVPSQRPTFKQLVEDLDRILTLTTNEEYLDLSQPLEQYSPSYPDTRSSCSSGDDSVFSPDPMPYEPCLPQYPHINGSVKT

Row | Structure (SMILES) | Kd (FGFR1) | Kd (FGFR2) | Kd (FGFR3) | Kd (FGFR3 (V555M)) | Kd (FGFR4) | IC50 [1] | IC50 [2] | IC50 [3] | IC50 [4]
1 | C[C@@H](Oc1ccc2[nH]nc(-c3cnc(N4CC(C)(NC5COC5)C4)c(C#N)c3)c2c1)c1c(Cl)cncc1Cl [Example 4, (R)-5-(5-(1-(3,5-dichloropyridin-4-yl)ethoxy)-1H-indazol-3-yl)-2-(3-methyl-3-(oxetan-3-ylamino)azetidin-1-yl)nicotinonitrile] | 50 to 300 nM | 50 to 300 nM | 1 to 50 nM | 1 to 50 nM | 1 to 50 nM | 200 to 1000 nM | 200 to 1000 nM | 50 to 200 nM | 0.1 to 50 nM
2 | C[C@@H](Oc1ccc2[nH]nc(-c3cnc(N4CC(C)(N(C)C)C4)nc3)c2c1)c1c(Cl)cncc1Cl [Example 44, (R)-1-(5-(5-(1-(3,5-dichloropyridin-4-yl)ethoxy)-1H-indazol-3-yl)pyrimidin-2-yl)-N,N,3-trimethylazetidin-3-amine] | 1 to 50 nM | 1 to 50 nM | 1 to 50 nM | 1 to 50 nM | 1 to 50 nM | 50 to 200 nM | 50 to 200 nM | 0.1 to 50 nM | 0.1 to 50 nM
3 | COc1cc2[nH]nc(-c3cnc(N4CC(C)(NCCC(F)F)C4)c(C#N)c3)c2cc1O[C@H](C)c1c(Cl)cncc1Cl [Example 41, 5-[5-[(1R)-1-(3,5-dichloro-4-pyridyl)ethoxy]-6-methoxy-1H-indazol-3-yl]-2-[3-(3,3-difluoropropylamino)-3-methyl-azetidin-1-yl]pyridine-3-carbonitrile] | 1 to 50 nM | 1 to 50 nM | 1 to 50 nM | 1 to 50 nM | 1 to 50 nM | 50 to 200 nM | 50 to 200 nM | 0.1 to 50 nM | 0.1 to 50 nM
4 | C[C@@H](Oc1ccc2[nH]nc(-c3cnc(N4CC(C)(NCC5CC5)C4)c(C#N)c3)c2c1)c1c(Cl)cncc1Cl [Example 27, 2-[3-(Cyclopropylmethylamino)-3-methyl-azetidin-1-yl]-5-[5-[(1R)-1-(3,5-dichloro-4-pyridyl)ethoxy]-1H-indazol-3-yl]pyridine-3-carbonitrile] | 1 to 50 nM | 50 to 300 nM | 1 to 50 nM | 1 to 50 nM | 1 to 50 nM | 200 to 1000 nM | 200 to 1000 nM | 50 to 200 nM | 50 to 200 nM
5 | C[C@@H](Oc1ccc2[nH]nc(-c3cnc(N4CC(C)(N5CCCC5)C4)c(C#N)c3)c2c1)c1c(Cl)cncc1Cl [Example 17, (R)-5-(5-(1-(3,5-Dichloropyridin-4-yl)ethoxy)-1H-indazol-3-yl)-2-(3-methyl-3-(pyrrolidin-1-yl)azetidin-1-yl)nicotinonitrile] | 1 to 50 nM | 1 to 50 nM | 1 to 50 nM | 1 to 50 nM | 1 to 50 nM | 200 to 1000 nM | 200 to 1000 nM | 50 to 200 nM | 0.1 to 50 nM
6 | C[C@@H](O)CNC1(C)CN(c2ncc(-c3n[nH]c4ccc(O[C@H](C)c5c(Cl)cncc5Cl)cc34)cc2C#N)C1 [Example 56, 5-(5-((R)-1-(3,5-dichloropyridin-4-yl)ethoxy)-1H-indazol-3-yl)-2-(3-(((R)-2-hydroxypropyl)amino)-3-methylazetidin-1-yl)nicotinonitrile] | 1 to 50 nM | 1 to 50 nM | 1 to 50 nM | 1 to 50 nM | 1 to 50 nM | 50 to 200 nM | 200 to 1000 nM | 0.1 to 50 nM | 0.1 to 50 nM
7 | C[C@@H](Oc1ccc2[nH]nc(-c3cnc(N4CC(C)(N5CCS(=O)(=O)CC5)C4)c(C#N)c3)c2c1)c1c(Cl)cncc1Cl [Example 321, (R)-5-(5-(1-(3,5-dichloropyridin-4-yl)ethoxy)-1H-indazol-3-yl)-2-(3-(1,1-dioxidothio-morpholino)-3-methylazetidin-1-yl)nicotinonitrile] | 1 to 50 nM | 1 to 50 nM | 1 to 50 nM | 1 to 50 nM | 1 to 50 nM | 200 to 1000 nM | 200 to 1000 nM | 50 to 200 nM | 0.1 to 50 nM

Further lines, results first:

Row | Kd (FGFR1) | Kd (FGFR2) | Kd (FGFR3) | Kd (FGFR3 (V555M)) | Kd (FGFR4) | IC50 [1] | IC50 [2] | IC50 [3] | IC50 [4] | Structure (SMILES)
8 | 1 to 50 nM | 1 to 50 nM | 1 to 50 nM | 1 to 50 nM | 1 to 50 nM | 50 to 200 nM | 50 to 200 nM | 0.1 to 50 nM | 0.1 to 50 nM | CC[C@H](C)NC1(C)CN(c2ncc(-c3n[nH]c4cc(OC)c(O[C@H](C)c5c(Cl)cncc5Cl)cc34)cc2C#N)C1 [Example 144, 5-[5-[(1R)-1-(3,5-dichloro-4-pyridyl)ethoxy]-6-methoxy-1H-indazol-3-yl]-2-[3-methyl-3-[[(1S)-1-methylpropyl]amino]aze-tidin-1-yl]pyridine-3-carbonitrile]
9 | 1 to 50 nM | 1 to 50 nM | 1 to 50 nM | 1 to 50 nM | 1 to 50 nM | 50 to 200 nM | 50 to 200 nM | 0.1 to 50 nM | 0.1 to 50 nM | COc1cc2[nH]nc(-c3cnc(N4CC(C)(NCC(C)C)C4)c(C#N)c3)c2cc1O[C@H](C)c1c(Cl)cncc1Cl [Example 139, (R)-5-(5-(1-(3,5-dichloropyridin-4-yl)ethoxy)-6-methoxy-1H-indazol-3-yl)-2-(3-(isobutylamino)-3-methylazetidin-1-yl)nicotinonitrile]
10 | 1 to 50 nM | 1 to 50 nM | 1 to 50 nM | 1 to 50 nM | 1 to 50 nM | 50 to 200 nM | 50 to 200 nM | 0.1 to 50 nM | 0.1 to 50 nM | COc1cc2[nH]nc(-c3cnc(N4CC(C)(NCC(F)F)C4)c(C#N)c3)c2cc1O[C@H](C)c1c(Cl)cncc1Cl [Example 42, 5-[5-[(1R)-1-(3,5-dichloro-4-pyridyl)ethoxy]-6-methoxy-1H-indazol-3-yl]-2-[3-(2,2-difluoroethylamino)-3-methyl-azetidin-1-yl]pyridine-3-carbonitrile]
11 | 1 to 50 nM | 1 to 50 nM | 1 to 50 nM | 1 to 50 nM | 1 to 50 nM | 50 to 200 nM | 50 to 200 nM | 0.1 to 50 nM | 0.1 to 50 nM | COc1cc2[nH]nc(-c3cnc(N4CC(C)(N5C[C@H]6C[C@@H]5CO6)C4)c(C#N)c3)c2cc1O[C@H](C)c1c(Cl)cncc1Cl [Example 338, 2-(3-((1R,4R)-2-oxa-5-aza-bicyclo[2.2.1]hep-tan-5-yl)-3-methylazetidin-1-yl)-5-(5-((R)-1-(3,5-dichloropyridin-4-yl)ethoxy)-6-methoxy-1H-indazol-3-yl)nicotinonitrile]
12 | 1 to 50 nM | 1 to 50 nM | 1 to 50 nM | 1 to 50 nM | 1 to 50 nM | 50 to 200 nM | 50 to 200 nM | 0.1 to 50 nM | 0.1 to 50 nM | C=CCNC1(C)CN(c2ncc(-c3n[nH]c4cc(OC)c(O[C@H](C)c5c(Cl)cncc5Cl)cc34)cc2C#N)C1 [Example 147, (R)-2-(3-(allylamino)-3-methylazetidin-1-yl)-5-(5-(1-(3,5-dichloropyridin-4-yl)ethoxy)-6-methoxy-1H-indazol-3-yl)nicotinonitrile]
13 | 1 to 50 nM | 1 to 50 nM | 1 to 50 nM | 1 to 50 nM | 1 to 50 nM | 50 to 200 nM | 50 to 200 nM | 0.1 to 50 nM | 0.1 to 50 nM | COc1cc2[nH]nc(-c3cnc(N4CC(C)(N[C@@H]5CCOC5)C4)c(C#N)c3)c2cc1O[C@H](C)c1c(Cl)cncc1Cl [Example 25, 5-(5-((R)-1-(3,5-dichloropyridin-4-yl)ethoxy)-6-methoxy-1H-indazol-3-yl)-2-(3-methyl-3-(((R)-tetrahydrofuran-3-yl)amino)azetidin-1-yl)nicotinonitrile]
14 | 1 to 50 nM | 1 to 50 nM | 1 to 50 nM | 1 to 50 nM | 1 to 50 nM | 50 to 200 nM | 200 to 1000 nM | 50 to 200 nM | 0.1 to 50 nM | COc1cc2[nH]nc(-c3cnc(N4CC(C)(NCCO)C4)c(C#N)c3)c2cc1O[C@H](C)c1c(Cl)cncc1Cl [Example 47, 5-[5-[(1R)-1-(3,5-dichloro-4-pyridyl)ethoxy]-6-methoxy-1H-indazol-3-yl]-2-[3-(2-hydroxyethylamino)-3-methyl-azetidin-1-yl]pyridine-3-carbonitrile]
15 | 1 to 50 nM | 1 to 50 nM | 1 to 50 nM | 1 to 50 nM | 1 to 50 nM | 50 to 200 nM | 50 to 200 nM | 0.1 to 50 nM | 0.1 to 50 nM | COc1cc2[nH]nc(-c3cnc(N4CC(C)(N)C4)c(C#N)c3)c2cc1O[C@H](C)c1c(Cl)cncc1Cl [Example 143, 2-(3-amino-3-methyl-azetidin-1-yl)-5-[5-[(1R)-1-(3,5-dichloro-4-pyridyl)ethoxy]-6-methoxy-1H-indazol-3-yl]pyridine-3-carbonitrile]
